Molecular target: actomyosin-7a (acto•M7a) (Homo sapiens, UniProt Q13402)
Assay: biochemical

Chain of actomyosin-7a (acto•M7a) (Q13402 whole entry, looked up): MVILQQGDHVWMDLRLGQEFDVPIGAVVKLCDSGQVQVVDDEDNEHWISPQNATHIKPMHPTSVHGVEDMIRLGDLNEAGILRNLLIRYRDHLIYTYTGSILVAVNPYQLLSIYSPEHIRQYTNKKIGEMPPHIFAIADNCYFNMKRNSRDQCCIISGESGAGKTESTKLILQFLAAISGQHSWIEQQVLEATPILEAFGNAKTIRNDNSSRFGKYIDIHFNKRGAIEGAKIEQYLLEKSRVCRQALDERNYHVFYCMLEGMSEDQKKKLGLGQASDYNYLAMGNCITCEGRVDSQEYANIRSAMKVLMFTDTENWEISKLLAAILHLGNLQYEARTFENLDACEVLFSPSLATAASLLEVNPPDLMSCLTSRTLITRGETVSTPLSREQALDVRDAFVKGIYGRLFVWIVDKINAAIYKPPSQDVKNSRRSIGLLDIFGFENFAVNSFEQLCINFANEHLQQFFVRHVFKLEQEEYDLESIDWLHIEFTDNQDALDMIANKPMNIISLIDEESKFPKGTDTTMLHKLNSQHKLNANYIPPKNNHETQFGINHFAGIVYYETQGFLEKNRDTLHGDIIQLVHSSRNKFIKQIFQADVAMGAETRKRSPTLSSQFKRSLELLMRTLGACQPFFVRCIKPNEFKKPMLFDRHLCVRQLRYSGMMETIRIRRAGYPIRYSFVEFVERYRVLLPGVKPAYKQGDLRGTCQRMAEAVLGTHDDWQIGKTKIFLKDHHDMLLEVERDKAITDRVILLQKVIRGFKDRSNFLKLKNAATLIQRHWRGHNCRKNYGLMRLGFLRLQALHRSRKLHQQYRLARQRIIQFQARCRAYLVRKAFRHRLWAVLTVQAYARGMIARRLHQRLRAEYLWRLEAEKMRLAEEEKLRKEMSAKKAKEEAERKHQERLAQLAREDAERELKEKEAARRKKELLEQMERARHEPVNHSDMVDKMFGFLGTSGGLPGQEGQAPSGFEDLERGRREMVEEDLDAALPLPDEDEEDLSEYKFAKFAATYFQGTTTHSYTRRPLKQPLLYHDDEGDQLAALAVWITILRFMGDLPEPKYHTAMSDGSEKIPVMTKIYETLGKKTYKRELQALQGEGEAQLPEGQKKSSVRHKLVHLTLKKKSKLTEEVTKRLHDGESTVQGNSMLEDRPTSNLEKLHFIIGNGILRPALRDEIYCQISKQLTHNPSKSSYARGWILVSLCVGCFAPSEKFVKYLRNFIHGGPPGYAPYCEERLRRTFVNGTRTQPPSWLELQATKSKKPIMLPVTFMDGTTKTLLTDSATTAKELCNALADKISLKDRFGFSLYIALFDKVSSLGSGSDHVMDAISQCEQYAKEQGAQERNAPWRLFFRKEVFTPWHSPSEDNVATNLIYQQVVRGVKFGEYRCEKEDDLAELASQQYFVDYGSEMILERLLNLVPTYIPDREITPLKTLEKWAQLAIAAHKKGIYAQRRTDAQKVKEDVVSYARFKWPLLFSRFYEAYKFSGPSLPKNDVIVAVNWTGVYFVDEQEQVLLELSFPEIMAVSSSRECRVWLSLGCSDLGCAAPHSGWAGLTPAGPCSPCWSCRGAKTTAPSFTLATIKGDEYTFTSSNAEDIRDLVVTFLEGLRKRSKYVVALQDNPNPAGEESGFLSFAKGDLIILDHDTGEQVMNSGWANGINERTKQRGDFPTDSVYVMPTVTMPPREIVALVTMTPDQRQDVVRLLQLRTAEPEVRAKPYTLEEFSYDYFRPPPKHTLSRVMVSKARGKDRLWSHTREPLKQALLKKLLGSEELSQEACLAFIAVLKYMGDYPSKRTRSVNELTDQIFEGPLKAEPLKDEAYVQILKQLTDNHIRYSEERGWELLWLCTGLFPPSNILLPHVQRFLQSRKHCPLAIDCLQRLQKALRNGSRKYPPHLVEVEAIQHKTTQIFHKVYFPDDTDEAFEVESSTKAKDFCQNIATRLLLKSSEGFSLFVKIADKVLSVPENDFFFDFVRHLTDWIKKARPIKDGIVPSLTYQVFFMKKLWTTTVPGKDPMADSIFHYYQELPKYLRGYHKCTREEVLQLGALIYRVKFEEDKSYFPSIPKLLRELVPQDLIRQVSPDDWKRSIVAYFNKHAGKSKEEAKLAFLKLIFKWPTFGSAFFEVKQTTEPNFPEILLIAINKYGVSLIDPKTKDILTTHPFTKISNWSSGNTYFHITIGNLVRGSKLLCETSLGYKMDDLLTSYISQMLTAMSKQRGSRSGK

Work on `Nc1ncnc2c1ncn2[C@@H]1O[C@H](COP(=O)(O)OP(=O)(O)OP(=O)(O)O)[C@@H](O)[C@H]1O` [ATP] yielded a Kd of 681.2 ± 5.63 µM.

Reference: PMC3249170 (Cellular and Molecular Life Sciences: CMLS, 2011)
